Assay results taken from US6448450B1, “1-(3,5-dimethoxyphenyl)-2-(4-hydroxyphenyl)-ethylene for diabetes treatment” (Calyx Therapeutics, Inc., priority 1998, dated 2002).

Experiments:
[1] = tested on: STZ induced diabetic rats; set-up: blood glucose BEFORE / blood glucose AFTER: unit not given here; conditions: Pter. 20 mg/kg, metformin 30 mg/kg, cited from earlier work; for blood glucose AFTER: after treatment; for blood glucose BEFORE: before treatment
[2] = tested on: STZ induced diabetic rats; test: Effect on streptozotocin-induced diabetic rats, comparison with metformin; format: in vivo; conditions: 20 mg/kg vs metformin 30 mg/kg
Protocol: (§1) Streptozotocin (STZ) induced diabetic rats were made by injecting STZ (40 mg/kg/bw) intravenously. Following verification of blood glucose levels after 72 hours, diabetic rats showing fasting blood glucose levels above 200 mg/dl were divided into two groups. The diphenylethylene was administered to one group in a dose of 20 mg/kg/bw in propyleneglycol. The control group received only propyleneglycol. Soon after the administration of the compound, glucose tolerance testing was conducted by a glucose load of 2 g/kg/bw and blood glucose levels were monitored at zero, 30, 60, 120 and 180 minutes by milking the tail of the rats.
The same test was conducted on STZ induced diabetic rats comparing the diphenylethylene with the commercial product metformin. The diphenylethylene was administered at a dose of 20 mg/kg and metformin was administered at the dosage of 30 mg/kg.

[3] = tested on: Streptozotocin (STZ) induced diabetic rats; test: Glucose tolerance test in STZ induced diabetic rats; format: in vivo; conditions: 20 mg/kg/bw in propyleneglycol, glucose load 2 g/kg/bw, monitored 0-180 minutes, FIG. 1
Protocol: as §1

[4] = tested on: spontaneously diabetic (db/db) mice; test: Blood glucose in spontaneously diabetic (db/db) mice; format: in vivo; conditions: 20 mg/kg/bw/ip in propyleneglycol, within 24 hours
Protocol: Six spontaneously diabetic (db/db) mice were divided into two groups of three each. One test group receives the diphenylethylene (20 mg/kg/bw/ip) in propyleneglycol. The control group received an equal volume of propyleneglycol. Soon after the administration of the test materials, blood glucose levels were monitored at 1 hour (see FIG. 2A) and 24 hours (see FIG. 2B) after treatment. The diphenylethylene reduced the blood glucose level by over 50 percent within 24 hours, thus establishing its antihyperglycemic effect.

[5] = cited from earlier work

In the case of CN(C)C(=N)N=C(N)N [Metformin, metformin, reference compound], the “% CHANGE of blood glucose” value [1] is listed as −48%, the “blood glucose AFTER” value [1] is listed as 188 ± 36 and the “blood glucose BEFORE” value [1] is listed as 358 ± 24.

In the case of COc1cc(/C=C/c2ccc(O)cc2)cc(OC)c1 [diphenylethylene, 1-(3,5-dimethoxyphenyl)-2-(4-hydroxyphenyl)ethylene], the “glucose levels compared with the commercial product (metformin)” value [2] is given as “equivalent to those obtained by the commercial product”, the “blood glucose levels versus control group after glucose load” value [3] is given as “stayed consistently below the blood glucose levels in the control group” and the “% CHANGE of blood glucose” value [1] is given as −42%. For the same compound, the “blood glucose AFTER” value [1] was 219 ± 48, the “blood glucose BEFORE” value [1] was 377 ± 37 and the “reduction of blood glucose level” value [4] was “over 50%”.

In the case of COc1cc(/C=C/c2ccc(O)cc2)cc(OC)c1 [pterostilbene, 3,5-dimethoxy-4′-hydroxy-trans-stilbene], the water solubility [5] is given as “water insoluble”.
